From ChEMBL document CHEMBL4364305, “Medicinal leech antimicrobial peptides lacking toxicity represent a promising alternative strategy to combat antibiotic-resistant pathogens” (Eur J Med Chem, 2019)
≈ marks a conversion by molar mass, not a printed value. Calls of active or inactive are those of the source. The rule behind the calls is not given here. Residues, ends and D or L forms follow the SMILES beside them.

Key:
Chlamydia trachomatis = test: Antibacterial activity against Chlamydia trachomatis D/UW-3/Cx infected in mouse McCoy cells assessed as reduction in infected cells preincubated for 2 hrs and measured after 48 hrs by immunofluorescence method; format: functional
Escherichia coli [1] = test: Antibacterial activity against Escherichia coli MG1655 assessed as reduction in bacterial cell growth incubated for 24 hrs by microtiter dilution method; format: functional; conditions: MG1655, 24 h
Bacillus subtilis [2] = test: Antibacterial activity against Bacillus subtilis 168 HT assessed as reduction in bacterial cell growth incubated for 24 hrs by microtiter dilution method; format: functional
[3] = Cytotoxicity against mouse McCoy cells assessed as cell viability at 0.5 to 4 times of antibacterial MIC incubated for 48 hrs by calcein AM and ethidium homodimer-1 staining based epifluorescence microscopic method relative to control; conditions: read-out: Activity
Escherichia coli [4] = test: Antibacterial activity against Escherichia coli MG1655 assessed as reduction in bacterial cell structural integrity at 0.5 antibacterial MIC incubated for 8 or 24 hrs by scanning electron microscopy; format: functional, organism-based
Bacillus subtilis [5] = test: Antibacterial activity against Bacillus subtilis 168 HT assessed as reduction in bacterial cell structural integrity at 0.5 antibacterial MIC incubated for 8 or 24 hrs by scanning electron microscopy; format: functional, organism-based
Lipid bilayer [6] = test: Disruption of large POPC:POPS unilamellar vesicle membrane assessed as release of carboxyfluorescein measured after 1 min by fluorescence based method
Lipid bilayer [7] = test: Disruption of large POPS unilamellar vesicle membrane assessed as release of carboxyfluorescein measured after 1 min by fluorescence based method
Lipid bilayer [8] = test: Disruption of large POPC:DOPG unilamellar vesicle membrane assessed as release of carboxyfluorescein measured after 1 min by fluorescence based method
Lipid bilayer [9] = test: Disruption of large POPC unilamellar vesicle membrane assessed as release of carboxyfluorescein measured after 1 min by fluorescence based method
Bacillus subtilis [10] = test: Induction of morphological changes in Bacillus subtilis 168 HT assessed as cellular debris formation at 0.5 antibacterial MIC incubated for 8 or 24 hrs by scanning electron microscopy; format: functional, organism-based
[11] = Hemolytic activity in human Erythrocyte at 100 uM measured after 1 hr relative to control; format: ADME, cell-based; conditions: erythrocytes, read-out: Activity
[12] = Cytotoxicity against mouse McCoy cells assessed as reduction in cell viability at 4 times of antibacterial MIC incubated for 48 hrs by calcein AM and ethidium homodimer-1 staining based epifluorescence microscopic method relative to control
[13] = Hemolytic activity in human Erythrocyte at 50 uM measured after 1 hr relative to control; format: ADME, cell-based; conditions: erythrocytes, read-out: Activity
[14] = Hemolytic activity in human Erythrocyte at 6.25 uM measured after 1 hr relative to control; format: ADME, cell-based; conditions: erythrocytes, read-out: Activity

SMILES	MIC90 (Chlamydia trachomatis)	MIC (Escherichia coli [1])	MIC (Bacillus subtilis [2])	other results
CC[C@H](C)[C@H](NC(=O)[C@H](CC(C)C)NC(=O)[C@@H](N)CS)C(=O)N[C@@H](CCSC)C(=O)N[C@@H](CCCCN)C(=O)N[C@H](C(=O)N[C@@H](CCCNC(=N)N)C(=O)N[C@@H](CCCNC(=N)N)C(=O)N[C@@H](CCCCN)C(=O)N[C@@H](CCCCN)C(=O)O)C(C)C (H-CLIMKVRRKK-OH)	12.5 µM (≈ 15.9 µg/mL)	100 µM (≈ 128 µg/mL)	12.6 µM (≈ 16.1 µg/mL)	
CC[C@H](C)[C@H](NC(=O)[C@H](CCCNC(=N)N)NC(=O)[C@H](CCSC)NC(=O)[C@@H](NC(=O)[C@H](CCCNC(=N)N)NC(=O)[C@@H](N)Cc1ccccc1)[C@@H](C)CC)C(=O)N[C@@H](CC(C)C)C(=O)N[C@@H](CCCNC(=N)N)C(=O)N[C@H](C(=O)N[C@@H](CC(C)C)C(=O)N[C@@H](CCCCN)C(=O)N[C@@H](CC(C)C)C(=O)O)C(C)C (H-FRIMRILRVLKL-OH)	3.1 µM (≈ 4.83 µg/mL)	10.3 µM (≈ 16 µg/mL)	10.3 µM (≈ 16 µg/mL)	viability at 48 h [3]: 100%; Activity (Escherichia coli [4]): Active; Activity (Bacillus subtilis [5]): Active; Activity (Lipid bilayer [6]): Dose-dependent effect; Activity (Lipid bilayer [7]): Dose-dependent effect; Activity (Lipid bilayer [8]): Dose-dependent effect; Activity (Lipid bilayer [9]): inactive; Activity (Bacillus subtilis [10]): inactive
CC[C@H](C)[C@H](NC(=O)[C@H](CCCCN)NC(=O)[C@H](Cc1ccccc1)NC(=O)[C@H](CCCNC(=N)N)NC(=O)[C@H](CCCCN)NC(=O)[C@@H](NC(=O)[C@@H](NC(=O)[C@H](Cc1ccccc1)NC(=O)CN)[C@@H](C)CC)C(C)C)C(=O)N[C@@H](CC(C)C)C(=O)N[C@H](C(=O)O)C(C)C (H-GFIVKRFKILV-OH)	> 100 µM	> 97 µM	97 µM (≈ 128 µg/mL)	hemolysis at 1 h, 100 µM [11]: 30%; Activity [12]: 100%
CC[C@H](C)[C@H](N)C(=O)N[C@@H](CCCCN)C(=O)N[C@H](C(=O)N[C@H](C(=O)N[C@@H](C)C(=O)N1CCC[C@H]1C(=O)N[C@@H](CCCCN)C(=O)N[C@@H](CCCCN)C(=O)N[C@H](C(=O)N[C@@H](CCCCN)C(=O)N[C@@H](CC(C)C)C(=O)O)[C@@H](C)CC)C(C)C)[C@@H](C)CC (H-IKIVAPKKIKL-OH)	> 100 µM	> 102 µM	> 102 µM	
CC[C@H](C)[C@H](N)C(=O)N[C@@H](CO)C(=O)N[C@@H](CCCNC(=N)N)C(=O)N[C@@H](C)C(=O)N[C@@H](CS)C(=O)N[C@@H](CC(C)C)C(=O)N[C@H](C(=O)N[C@@H](CCSC)C(=O)N[C@@H](CCCCN)C(=O)N[C@H](C(=O)N[C@@H](CCCNC(=N)N)C(=O)N[C@@H](CCCNC(=N)N)C(=O)N[C@@H](CCCCN)C(=O)N[C@@H](CCCCN)C(=O)O)C(C)C)[C@@H](C)CC (H-ISRACLIMKVRRKK-OH)	12.5 µM (≈ 21.3 µg/mL)	37.6 µM (≈ 64 µg/mL)	9.4 µM (≈ 16 µg/mL)	
CC[C@H](C)[C@H](NC(=O)[C@@H](NC(=O)[C@H](CCCCN)NC(=O)[C@H](CCCCN)NC(=O)[C@H](Cc1ccccc1)NC(=O)[C@@H](N)CCCCN)C(C)C)C(=O)N[C@@H](Cc1c[nH]c2ccccc12)C(=O)N[C@@H](CCCCN)C(=O)N[C@@H](CO)C(=O)N[C@@H](Cc1ccccc1)C(=O)N[C@@H](CC(C)C)C(=O)O (H-KFKKVIWKSFL-OH)	12.5 µM (≈ 17.8 µg/mL)	90 µM (≈ 128 µg/mL)	45 µM (≈ 64.1 µg/mL)	hemolysis at 1 h, 50 µM [13]: 50%; viability at 48 h [3]: 100%
CC[C@H](C)[C@H](NC(=O)[C@@H](N)CC(C)C)C(=O)N[C@H](C(=O)N[C@@H](CC(C)C)C(=O)N[C@H](C(=O)N[C@@H](CS)C(=O)N[C@@H](CCCNC(=N)N)C(=O)N[C@@H](CCCCN)C(=O)N[C@@H](CCCCN)C(=O)N[C@@H](CCCCN)C(=O)N[C@@H](CCCCN)C(=O)N1CCC[C@H]1C(=O)N[C@@H](Cc1ccccc1)C(=O)O)[C@@H](C)O)C(C)C (H-LIVLTCRKKKKPF-OH)	12.5 µM (≈ 19.7 µg/mL)	> 81 µM	40.7 µM (≈ 64.1 µg/mL)	Activity [12]: 100%
CC[C@H](C)[C@H](NC(=O)CNC(=O)[C@@H](NC(=O)[C@H](CCCCN)NC(=O)[C@@H](NC(=O)CNC(=O)[C@H](CC(C)C)NC(=O)[C@H](Cc1c[nH]c2ccccc12)NC(=O)[C@H](CCCNC(=N)N)NC(=O)[C@@H](N)CC(C)C)[C@@H](C)O)C(C)C)C(=O)N[C@@H](CC(C)C)C(=O)N[C@@H](CCCCN)C(=O)O (H-LRWLGTKVGILK-OH)	> 100 µM	> 92 µM	> 92 µM	
CC[C@H](C)[C@H](NC(=O)[C@@H](NC(=O)[C@H](CCCNC(=N)N)NC(=O)[C@@H](NC(=O)[C@H](CCCNC(=N)N)NC(=O)[C@H](CCCNC(=N)N)NC(=O)[C@@H](NC(=O)[C@H](CCCNC(=N)N)NC(=O)[C@@H](NC(=O)[C@H](CC(C)C)NC(=O)[C@@H](NC(=O)[C@@H]1CCCN1C(=O)[C@@H](N)CCCNC(=N)N)[C@@H](C)CC)[C@@H](C)CC)C(C)C)[C@@H](C)CC)C(C)C)C(=O)O (H-RPILIRVRRIRVI-OH)	> 100 µM	77.1 µM (≈ 128 µg/mL)	9.7 µM (≈ 16.1 µg/mL)	Activity [12]: Toxic
CC(C)C[C@H](NC(=O)[C@H](Cc1ccccc1)NC(=O)[C@H](CS)NC(=O)[C@@H](NC(=O)[C@H](CC(C)C)NC(=O)[C@H](CCCNC(=N)N)NC(=O)[C@H](Cc1c[nH]c2ccccc12)NC(=O)[C@@H](N)CCCNC(=N)N)C(C)C)C(=O)N[C@@H](CS)C(=O)N[C@@H](CCCNC(=N)N)C(=O)N[C@@H](CCCNC(=N)N)C(=O)N[C@@H](CCCCN)C(=O)N[C@@H](CCCCN)C(=O)N[C@H](C(=O)O)C(C)C (H-RWRLVCFLCRRKKV-OH)	6.3 µM (≈ 11.7 µg/mL)	17.2 µM (≈ 32.1 µg/mL)	8.6 µM (≈ 16 µg/mL)	hemolysis at 1 h, 100 µM [11]: 30%; viability at 48 h [3]: 100%; Activity (Escherichia coli [4]): Active; Activity (Bacillus subtilis [5]): Active; Activity (Lipid bilayer [6]): Dose-dependent effect; Activity (Lipid bilayer [7]): Dose-dependent effect; Activity (Lipid bilayer [8]): Dose-dependent effect; Activity (Lipid bilayer [9]): inactive
CC[C@H](C)[C@H](NC(=O)[C@H](CCCCN)NC(=O)[C@@H](N)Cc1c[nH]c2ccccc12)C(=O)N[C@@H](Cc1ccccc1)C(=O)N[C@@H](CCCCN)C(=O)N[C@@H](CC(C)C)C(=O)N[C@@H](CCCCN)C(=O)N[C@@H](CC(C)C)C(=O)N[C@@H](CCCNC(=N)N)C(=O)N[C@@H](CCSC)C(=O)N[C@@H](CC(C)C)C(=O)N[C@@H](Cc1c[nH]c2ccccc12)C(=O)O (H-WKIFKLKLRMLW-OH)	50 µM (≈ 83.1 µg/mL)	77 µM (≈ 128 µg/mL)	38.5 µM (≈ 64 µg/mL)	hemolysis at 1 h, 6.25 µM [14]: 50%
CC[C@H](C)[C@H](NC(=O)CNC(=O)[C@H](C)NC(=O)[C@H](Cc1cnc[nH]1)NC(=O)[C@@H](NC(=O)[C@H](CCCCN)NC(=O)[C@H](Cc1ccc(O)cc1)NC(=O)[C@@H]1CCCN1C(=O)[C@@H](NC(=O)[C@H](CC(C)C)NC(=O)[C@H](CCCCN)NC(=O)[C@H](CCCCN)NC(=O)[C@@H](N)Cc1c[nH]c2ccccc12)C(C)C)[C@@H](C)CC)C(=O)O (H-WKKLVPYKIHAGI-OH)	> 100 µM	> 82 µM	> 82 µM	
CC[C@H](C)[C@H](NC(=O)CN)C(=O)NCC(=O)N[C@@H](C)C(=O)N[C@H](C(=O)N[C@@H](CC(C)C)C(=O)N[C@@H](CCCCN)C(=O)N[C@H](C(=O)N[C@@H](CC(C)C)C(=O)N[C@H](C(=O)N[C@H](C(=O)NCC(=O)N[C@@H](CC(C)C)C(=O)N1CCC[C@H]1C(=O)N[C@@H](C)C(=O)N[C@@H](CC(C)C)C(=O)N[C@H](C(=O)N[C@@H](CO)C(=O)N[C@@H](Cc1c[nH]c2ccccc12)C(=O)N[C@H](C(=O)N[C@@H](CCCCN)C(=O)N[C@@H](CCCNC(=N)N)C(=O)N[C@@H](CCCCN)C(=O)N[C@@H](CCCNC(=N)N)C(=O)N[C@@H](CCC(N)=O)C(=O)N[C@@H](CCC(N)=O)C(N)=O)[C@@H](C)CC)[C@@H](C)CC)[C@@H](C)O)[C@@H](C)O)C(C)C)C(C)C [MELITTIN]	2 µM (≈ 5.69 µg/mL)			
